Data published in patent US12613249B2 (THE ROYAL INSTITUTION FOR THE ADVANCEMENT OF LEARNING / …, priority 2019, dated 2026).
Square brackets hold non-standard residues; d marks the D form. Peptide text beside a SMILES is read from it.

How the values were obtained:
mouse plasma = settings: C57BL/6 male and female mice, 37° C., up to 24 h
metalloproteases [1] = experiment: Metalloprotease inhibition in APP-overexpressing SH-SY5Y cells, 4-plex MSD; format: cell-based, human; settings: supernatant
Source text: (§1) Using the ELISA Conversion Kit from Meso Scale Discovery (MSD, USA), an electrochemiluminescence-based assay was developed (neo-epitope specific Aβ34 and the sulfo-tagged 6E10 (binds to the N-terminus of human Aβ) or the sulfo-tagged 4G8 for murine samples (binds to the mid domain of Aβ)). High-bind or custom-printed 4-plex plates (using the mab34, 4G8 (Biolegend) for pan-Aβ assay, G2−10 for 1-plex Aβ40 assay, and MSD's validated mouse monoclonal anti-Aβ38, anti-Aβ40, as well as anti-Aβ42 antibodies, see MSD Aβ peptide V-PLEX) were blocked (MSD 5% Blocker A in PBS) for 1 h at 22° C. and washed three times with PBS-T for 1 min. at 22° C., loaded with SULFO-TAG™ 6E10 or 4G8 detection antibody (diluted to 1× in MSD Diluent 100) and sample or peptide calibrator (in MSD Diluent 35 or cell culture medium), and incubated for 16 h at 4° C. with shaking at 600 rpm. After three washing steps with PBS-T for 1 min. at 22° C., 150 μL 2×MSD read buffer were added per well. All plates were read using a MSD QuickPlex SQ 120 Imager and data analyzed using MSD Workbench® software. Standard curves were fitted using a non-linear four-parameter logistic fit with 1/y^2 weighting. The equation is: […]

metalloproteases [2] = experiment: Metalloprotease inhibition in BACE1-overexpressing SH-SY5Y cells, 4-plex MSD; format: cell-based, human; settings: supernatant
Source text: as §1

[3] = Ex-vivo stability in mouse whole blood, MALDI-TOF MS; format: in vitro ADME; settings: both sexes, C57BL/6, 24 h incubation, read-out: decrease of signal
Description: (§2) The stability of D-AIP in mouse plasma, blood and liver S-9 fraction was investigated to ascertain the metabolic resistance towards proteases and enzymatic activities in these matrices. Whole mouse blood obtained from healthy C57BL/6 male and female mice (6 mice in total) were collected in lithium heparin containing tubes, pooled and stored at 4° C. prior to its use. A fraction of the pooled blood was immediately centrifuged at 1500×g for 10 min at 4° C. to obtain the plasma. The whole blood and plasma samples were spiked with PBS (as control) or AIP (L-AIP, D-AIP or sD-AIP respectively) to make a final concentration of 1 ug/mL and incubated at 37° C. Initial samples were withdrawn to represent t=0 prior to incubation and others were withdrawn 1, 3 and 24 h respectively. Fresh mouse liver also obtained from C57BL/6 male and female mice were pooled, homogenized in 0.15 M Potassium chloride (KCl) and centrifuged at 9000×g. The supernatant represents liver homogenate (S-9) fraction which was mixed with other buffers to formulate the liver S-9 mix as previously described (Kolrep et al., 2017, Toxicol In Vitro, 42:161-170). Liver S-9 mix were spiked with AIP to make a final concentration of 1 μg/mL (L-AIP, D-AIP or sD-AIP respectively) and incubated at 37° C. Just after the addition of NADPH, 100 μL aliquot which represents t=0 samples were withdrawn and others were sampled accordingly at predetermined time points. 400 μL of ice cold MeOH was added to the spiked plasma, blood or liver S-9 fraction respectively, to precipitate the microsomal protein. The samples were then vigorously mixed for 30 s to facilitate extraction and centrifuged for 10 minutes at 13000 rpm, the supernatant was subjected to sample clean up by C18 ZipTip (EMD Millipore Corporation), the eluates were spotted with CHCA matrix on the ground steel MALDI-TOF target and analyzed with MALDI-TOF MS. Applying the t=0 peak area as 100% the intensities of the other time points were compared relatively for interpretation. […]

[4] = Ex-vivo stability in mouse liver S9-fraction, MALDI-TOF MS; format: in vitro ADME, C57BL/6 mice; settings: mouse liver S-9 fraction, after 24 h
Description: as §2

In the case of “D-amino acids of RGTFEGKF (H-[dR]G[dT][dF][dE]G[dK][dF]-OH; N-terminus and C-terminus assumed; SMILES C[C@H](O)[C@@H](NC(=O)CNC(=O)[C@H](N)CCCNC(=N)N)C(=O)N[C@H](Cc1ccccc1)C(=O)N[C@H](CCC(=O)O)C(=O)NCC(=O)N[C@H](CCCCN)C(=O)N[C@H](Cc1ccccc1)C(=O)O)”, the not cleaved (mouse plasma) is reported as “relatively stable over 24 h in mouse plasma”.

In the case of `CC(C)C[C@H](NP(=O)(O)O[C@@H]1O[C@@H](C)[C@H](O)[C@@H](O)[C@H]1O)C(=O)N[C@@H](Cc1c[nH]c2ccccc12)C(=O)O` [PA, phosphoramidon], the “increase of Aβ34” value (metalloproteases [1]) is reported as “approximately 9 fold”, the “increase of Aβ38, Aβ40, and Aβ42” value (metalloproteases [1]) is reported as 2-3 fold and the “Aβ38, Aβ40, and Aβ42 levels” value (metalloproteases [2]) is reported as “not significantly changed”. The “increase of Aβ34” value (metalloproteases [2]) was “about 2.5 fold”.

For `C[C@H](O)[C@@H](NC(=O)[C@@H](Cc1ccccc1)NC(=O)[C@@H](CCCCN)NC(=O)[C@@H](CCCNC(=N)N)NC(=O)[C@@H](Cc1ccccc1)NC(=O)[C@H](N)CCC(=O)O)C(=O)NCC(=O)NCC(=O)O` [sD-AIP, reference compound] (H-[dE][dF][dR][dK][dF][dT]GG-OH; N-terminus and C-terminus assumed), the metabolised at 24 h, 1 ug/mL [3] was about 50% and the “signal intensity compared to the unincubated sample” value [4] was “four-fold reduced intensity”.
